# Assay results published in article PMC12197660 (Viruses, 2025).
# Several values for one entry are separate records, joined by “and”; a condition that tells them apart may be missing. Identical values can stand only once. Like-named read-outs stand apart in the source and are kept apart here.
# Assays:
# [1] = in vivo, cyno; cited from earlier work
# LogD = assay type: physicochemical
# [2] = test system: OATP1B1/3, P-gp, BCRP, ENT1/2, CNT3; conditions: cited from earlier work
# Solubility (PBS) = assay type: physicochemical; conditions: aqueous buffer
# [3] = cited from earlier work
# in vivo = assay type: in vivo, cynomolgus monkeys
# [4] = Permeability (MDCK A-to-B); assay type: in vitro ADME, canine; conditions: dog, MDCK-MDR1, pH 7.4
# [5] = test system: OATP1B1/3, P-gp, BCRP, ENT1/2, CNT3; test: Transporter substrate assessment; assay type: in vitro ADME, human
# [6] = cynomolgus monkey, in vivo, iv, 10 mg/kg, 24 h
# CatA = target: T1, CatA (Homo sapiens, UniProt P10619); test: Enzyme hydrolysis phenotype, fraction metabolized by CatA; assay type: in vitro ADME
# T1 sequence (P10619 29-480): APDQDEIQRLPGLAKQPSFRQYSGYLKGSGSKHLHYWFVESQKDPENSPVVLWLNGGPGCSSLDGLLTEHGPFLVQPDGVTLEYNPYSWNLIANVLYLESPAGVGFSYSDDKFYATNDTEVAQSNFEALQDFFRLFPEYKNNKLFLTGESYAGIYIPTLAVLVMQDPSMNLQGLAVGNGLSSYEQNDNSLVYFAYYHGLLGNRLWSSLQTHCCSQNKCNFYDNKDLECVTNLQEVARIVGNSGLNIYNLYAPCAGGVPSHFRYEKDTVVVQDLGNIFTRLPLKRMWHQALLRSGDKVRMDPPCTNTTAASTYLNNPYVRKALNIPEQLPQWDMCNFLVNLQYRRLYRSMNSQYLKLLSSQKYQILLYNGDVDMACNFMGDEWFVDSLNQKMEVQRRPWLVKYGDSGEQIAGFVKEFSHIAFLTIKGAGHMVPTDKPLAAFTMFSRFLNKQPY
# [7] = Radiolabeled metabolism and excretion in rats; assay type: in vivo; conditions: for Share of radioactivity in AUC-pooled plasma: analyte after IV RDV
# [8] = cited from earlier work; remark: listed apart in the source
# CES-1 = target: T2, CES-1 (Homo sapiens, UniProt P23141); test: Enzyme hydrolysis phenotype, fraction metabolized by CES-1; assay type: in vitro ADME
# T2 sequence (P23141 18-567): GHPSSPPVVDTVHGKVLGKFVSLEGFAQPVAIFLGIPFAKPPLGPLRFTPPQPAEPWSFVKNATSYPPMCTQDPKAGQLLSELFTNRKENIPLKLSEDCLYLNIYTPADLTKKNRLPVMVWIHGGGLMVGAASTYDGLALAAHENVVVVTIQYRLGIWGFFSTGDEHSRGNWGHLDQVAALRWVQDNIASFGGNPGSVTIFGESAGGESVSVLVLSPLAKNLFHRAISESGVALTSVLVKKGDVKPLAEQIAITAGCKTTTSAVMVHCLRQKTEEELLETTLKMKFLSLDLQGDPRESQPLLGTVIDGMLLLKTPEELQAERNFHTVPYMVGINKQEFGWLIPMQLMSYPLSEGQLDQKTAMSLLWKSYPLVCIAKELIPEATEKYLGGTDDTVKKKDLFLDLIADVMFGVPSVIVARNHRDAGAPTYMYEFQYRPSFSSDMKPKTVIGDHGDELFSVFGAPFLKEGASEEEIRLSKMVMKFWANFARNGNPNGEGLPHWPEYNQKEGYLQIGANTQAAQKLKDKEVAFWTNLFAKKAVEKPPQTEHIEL
# plasma protein = test: Plasma protein binding; assay type: in vitro ADME, mouse, rat, dog, monkey, and human
# [9] = Plasma stability, cynomolgus monkey plasma; assay type: in vitro ADME
# [10] = Plasma stability, human plasma; assay type: in vitro ADME
# [11] = Hepatic S9 fraction stability; assay type: in vitro ADME, rat, dog, monkey, and human
# [12] = Plasma stability (Table 1, across species); assay type: in vitro ADME, mouse, rat, dog, monkey, and human
# [13] = test system: hydrolases (CatA, CES-1/2, HINT1); test: Enzyme hydrolysis phenotype; assay type: in vitro ADME
# [14] = Oral ODV PK in portal-vein-cannulated monkey; assay type: in vivo, cynomolgus monkey; conditions: for Time of plasma Cmax in both portal and systemic circulation: analyte after oral ODV 14.4 mg/kg, single monkey
# [15] = cited from earlier work; remark: listed apart in the source
# [16] = Intestinal (GI) S9 fraction stability; assay type: in vitro ADME, rat, dog, monkey, and human; conditions: for S9 Stability, Intestinal: assessed in rat, dog, monkey, and human
# [17] = QWBA tissue distribution of radioactivity; assay type: in vivo; conditions: oral [14C]ODV 200 mg/kg, rats
# [18] = mean ± SD, N = 3, cited from earlier work
# [19] = human; cited from earlier work
# adenosine deaminase = conditions: cited from earlier work
# [20] = Microautoradiography (MARG) of lung and trachea; assay type: in vivo, Sprague Dawley rats; design: Radioactivity in Blood vessels / Radioactivity in Trachea (representative) / Radioactivity in Bronchus (cartilage) / Radioactivity in Bronchus (smooth muscle) / Radioactivity in Bronchus (epithelium) / Radioactivity in Bronchioles / Radioactivity in Alveoli wall: key: +++: moderate levels of silver grains present; ++: low levels of silver grains present; +: background levels of silver grains present; conditions: [3H] compound, 30 min IV infusion 10 mg/kg (3700 µCi/kg), 1 h after infusion; per animal; as to Radioactivity in Alveoli sac: key: +++: moderate levels of silver grains present; ++: low levels of silver grains present; +: background levels of silver grains present; as to Radioactivity in Blood vessels: key: +++: moderate levels of silver grains present; ++: low levels of silver grains present; +: background levels of silver grains present; as to Radioactivity in Bronchioles: key: +++: moderate levels of silver grains present; ++: low levels of silver grains present; +: background levels of silver grains present; as to Radioactivity in Bronchus (cartilage): key: +++: moderate levels of silver grains present; ++: low levels of silver grains present; +: background levels of silver grains present
# [21] = GS-441524 plasma PK across species; conditions: for half-life: BALB/c (mouse), Sprague Dawley (rat), beagle (dog)
# [22] = cynomolgus monkey; cited from earlier work
# [23] = cynomolgus monkey, in vivo, iv, 10 mg/kg
# [24] = male, Sprague Dawley, rat, in vivo, iv
# [25] = PBS, read-out: Solubility (PBS)
# [26] = A-to-B, read-out: Permeability (MDCK A-to-B)
# [27] = ODV oral 11.6 mg/kg (9.4 mg-eq/kg)
# [28] = range over mouse, rat, dog, monkey, and human
# [29] = assessed in rat, dog, monkey, and human
# [30] = assessed in mouse, rat, dog, monkey, and human
# [31] = cynomolgus monkey, in vivo, iv, 10 mg/kg, analyte in plasma after IV RDV 10 mg/kg 30-min infusion, mean ± SD, N = 3, read-out: T1/2 in plasma (converted)
# [32] = GS-441524 IV 30 min infusion 20 mg/kg
structure (smiles),measurement,setting,value
"CCC(CC)COC(=O)[C@H](C)N[P@](=O)(OC[C@H]1O[C@@](C#N)(c2ccc3c(N)ncnn23)[C@H](O)[C@@H]1O)Oc1ccccc1 [RDV, remdesivir, reference compound]",Oral bioavailability,[1],< 1%
same,logD,LogD,2.5
same,Transporter substrate (text),[2],substrate for both OATP1B1 and P-gp
same,solubility,Solubility (PBS),40.1 µg/mL
same,"Fecal excretion, of administered dose","[3]; in vivo, iv",~18%
same,Total mean [14C] dose recovery,"[3]; in vivo, iv",greater than 90%
same,"Urinary excretion, mean","[3]; in vivo, iv",74%
same,Vd,in vivo; [23],0.504 ± 0.175 L/kg
same,clearance,in vivo; [23],40 mL/min/kg
same,Papp A→B at 120 min,[4],1.32 ×10⁻⁶ cm/s
same,Transporter substrate,[5]; human,OATP1B1/P-gp
same,Lung GS-443902 C24h,[6],1.39 ± 0.15 nmol/g
same,PBMC GS-443902 C24h,[6],31.0 ± 11.8 µM
same,"Enzyme hydrolysis phenotype (fm), CatA",CatA,10%
same,"Fecal excretion, of administered dose",[7]; [24],approximately 25%
same,Total mean [14C] dose recovery,[7]; [24],greater than 90%
same,"Urinary excretion, mean",[7]; [24],61%
same,Stability in hepatic S9,[8],unstable
same,"Enzyme hydrolysis phenotype (fm), CES-1",CES-1,80%
same,Plasma protein binding (% free),plasma protein; plasma,6–14 % free
same,half-life at 2 µM,"[9]; cynomolgus monkey, plasma",6.42 h
same,Predicted human hepatic extraction,,> 0.9
same,half-life at 2 µM,"[10]; human, plasma",1.3 h
same,"S9 Stability, Hepatic",[11],Unstable
same,Plasma stability,[12],"Moderately Stable (unstable in mouse, rat)"
"CC(C)C(=O)OC[C@H]1O[C@@](C#N)(c2ccc3c(N)ncnn23)[C@H](O)[C@@H]1O [ODV, obeldesivir]",Enzyme hydrolysis phenotype,[13],CES-1/2
same,Time of plasma Cmax in both portal and systemic circulation,[14],0.25 h
same,Hepatic extraction of intact ODV absorbed,"[14]; portal vs systemic plasma ODV exposures, oral ODV 14.4 mg/kg",near complete hepatic extraction
same,logD,LogD,0.9
same,"Oral bioavailability of GS-441524, estimated",[15]; clinical ODV 350 mg oral tablet,41% to 50
same,solubility,Solubility (PBS); [25],~1000 µg/mL
same,"Fecal excretion, of administered dose, mean","[3]; oral ODV, humans",32%
same,Total mean [14C] dose recovery,"[3]; oral ODV, humans",greater than 90%
same,"Urinary excretion, mean","[3]; oral ODV, humans",58%
same,Stability in GI S9 fractions,"[16]; PMSF-free GI S9 from cynomolgus monkeys and humans, 2 µM",poor
same,"S9 Stability, Intestinal",[16],Unstable
same,Papp A→B at 120 min,[4]; [26],1.8 ×10⁻⁶ cm/s
same,Transporter substrate,[5],BCRP/P-gp
same,Transporter substrate (text),[5],substrate for both BCRP and P-gp transporters
same,Persistence of radioactivity in tissues,[17],little [^14C]ODV-related radioactivity was detected after 24 h
same,Time by which broad distribution of drug-associated radioactivity was observed,[17],≤ 0.25 h
same,"Fecal excretion, of administered dose, mean","[7]; oral ODV, rats",52%
same,Total mean [14C] dose recovery,"[7]; oral ODV, rats",greater than 90%
same,"Urinary excretion, mean","[7]; oral ODV, rats",33%
same,Plasma GS-441524 AUC0–24h,[18]; [27],"21,600 ± 11,000 nM·h"
same,Plasma GS-441524 T1/2,[18]; [27],2.62 ± 0.55 h
same,Plasma GS-441524 Tmax,[18]; [27],1.67 ± 0.58 h
same,Cmax,"[18]; read-out: Plasma GS-441524 Cmax, ODV oral 11.6 mg/kg (9.4 mg-eq/kg)",7.57 ± 6.07 µM
same,Plasma protein binding (% free),plasma protein; [28],56–76 % free
same,Stability in Hep S9 fractions,"[11]; Hep S9 from cynomolgus monkeys and humans, 2 µM",poor
same,"S9 Stability, Hepatic",[11]; [29],Unstable
same,Plasma stability,[12]; [30],Unstable (stable in dog)
N#CC1(c2ccc3c(=O)[nH]cnn23)OC(CO)C(O)C1O (stereo not drawn) [Deaminated nucleoside],"Level in feces, fold lower than GS-441524","[7]; minor metabolite after oral ODV, rats and humans",5- to 10 fold
N#C[C@@]1(c2ccc3c(N)ncnn23)O[C@H](CO)[C@@H](O)[C@H]1O [GS-441524],Time of plasma Cmax in both portal and systemic circulation,[14],1 h
same,logD,LogD,< 0.3
same,"Oral bioavailability of GS-441524, estimated","[15]; oral solution (55 °C) of GS-441524, human PK",< 15%
same,solubility,Solubility (PBS); [25],26.5 µg/mL
same,Share of total radioactivity in plasma,"[3]; analyte after IV RDV, humans",~ 53%
same,Share of total radioactivity in plasma,"[3]; analyte after oral ODV, humans",> 97%
same,Share of total sample radioactivity in feces,"[3]; analyte after oral ODV, humans",98%
same,Stability in plasma,[19],stable
same,"S9 Stability, Intestinal",[16],Stable
same,half-life,in vivo; [31],16.1 ± 4 h
same,Papp A→B at 120 min,[4]; [26],0.16 ×10⁻⁶ cm/s
same,Transporter substrate (text),[5],substrate for P-gp
same,Transporter substrate,[5]; human,BCRP/P-gp ENT1/2/CNT3
same,Adenosine deaminase substrate,adenosine deaminase,weak substrate for adenosine deaminase
same,Share of radioactivity in AUC-pooled plasma,[7]; rats,approximately 70%
same,Share of total radioactivity in plasma,"[7]; analyte after oral ODV, rats",> 97%
same,Share of total sample radioactivity in feces,"[7]; analyte after oral ODV, rats",~ 85%
same,Radioactivity in Alveoli sac,[20],++ (2×) and +
same,Radioactivity in Alveoli wall,[20],+++
same,Radioactivity in Blood vessels,[20],+++
same,Radioactivity in Bronchioles,[20],+++
same,Radioactivity in Bronchus (cartilage),[20],++ and +++
same,Radioactivity in Bronchus (epithelium),[20],++ and +++
same,Radioactivity in Bronchus (smooth muscle),[20],++
same,Radioactivity in Trachea (representative),[20],++
same,Plasma GS-441524 AUC0–24h,[18]; [32],"124,000 ± 11,000 nM·h"
same,Plasma GS-441524 Tmax,[18]; [32],0.516 ± 0.058 h
same,Plasma protein binding (% free),plasma protein; [28],85–99 % free
same,half-life,"[21]; plasma, iv",0.7 to 3.4 h
same,half-life,"[21]; plasma, po",1.4 to 4.2 h
same,Volume of distribution,"[21]; IV, across species",moderate volume of distribution
same,clearance,"[21]; IV, across species",low to moderate clearance
same,bioavailability,"[21]; cynomolgus monkey, plasma, po",~5%
same,Stability in plasma,[22],stable
same,"S9 Stability, Hepatic",[11]; [29],Stable
same,Plasma stability,[12]; [30],Stable
C[C@H](NP(=O)(O)OC[C@H]1O[C@@](C#N)(c2ccc3c(N)ncnn23)[C@H](O)[C@@H]1O)C(=O)O [GS-704277],Enzyme hydrolysis phenotype,[13],HINT1
same,half-life,in vivo; [31],0.56 ± 0.01 h
same,Transporter substrate,[5]; human,OATP1B1/3
same,Share of radioactivity in AUC-pooled plasma,[7]; rats,~20%
same,Plasma protein binding (% free),plasma protein; [28],95–100 % free
same,Stability in plasma,"[9]; cynomolgus monkey plasma, 2 µM, 240 min incubation",stable
same,Stability in plasma,"[10]; human plasma, 2 µM, 240 min incubation",stable
same,Plasma stability,[12]; assessed in monkey and human,Stable ^d
N#C[C@@]1(c2ccc3c(N)ncnn23)O[C@H](COP(=O)(O)OP(=O)(O)OP(=O)(O)O)[C@@H](O)[C@H]1O [GS-443902],T1/2 in PBMC,"in vivo; analyte in PBMC after IV RDV 10 mg/kg 30-min infusion, N = 3",29.4 ± 3.0 h
same,half-life,"in vivo; cynomolgus monkey, in vivo, iv, 10 mg/kg, analyte in PBMC after IV RDV 10 mg/kg 30-min infusion, N = 3, read-out: T1/2 in PBMC (converted)",29 h
